Literature values as cited in patent US11459499B2, “Amidoamine-based gemini surfactant containing ethoxylate units and a method for oil recovery” (King Fahd University of Petroleum and Minerals, priority 2018, dated 2022).
Where two headings read alike, the source gives them in different places.

Structure (SMILES) | reported CMC (literature (Hoque et al., 2012)) [mM] | reported CMC (literature (Lu et al., 2012))
CCCCCCCCCCCC[N+](C)(C)C.[Br-] [DTAB, dodecyltrimethylammonium bromide] | 16.1 | 5.0×10^−1 wt. %
CCCCCCCCCCCC[N+](C)(C)CC[N+](C)(C)CCCCCCCCCCCC.[Br-].[Br-] [12-2-12] | – | about 5.5×10^−2 wt. %
